One assay has as its system MV4;11 cells. Put plainly: Cell viability assay (CellTiter-Glo) in MV4;11 cells, alone or with gilteritinib. It is filed as cell-based. Particulars: Homo sapiens, MV4-11, 72 h, MV4;11 cells, three days, CellTiter-Glo, read-out: MV4. On the technique in general: In ATP-based viability assays light output follows the ATP content of the culture.
The subject of another assay is MOLM-13 cells. Put plainly: Cell viability assay (CellTiter-Glo) in MOLM-13 cells, alone or with gilteritinib. Particulars: Homo sapiens, MOLM-13, 72 h, MOLM-13 cells, three days, CellTiter-Glo. It is filed as cell-based.
Where [1] appears, read: compound alone (without gilteritinib), 11 IC50.
[2] abbreviates: with gilteritinib 10 nM, 11 IC50 gilteritinib.
The mark [3] stands for this setting: compound alone (without gilteritinib), read-out: MOLM-13 IC50.
[4] abbreviates: with gilteritinib 20 nM, read-out: MOLM-13 IC50 gilteritinib.

Like-named read-outs stand apart in the source and are kept apart here. Where only a bound is given, the exact number is not on record here.

Regarding `O=C1CCC(N2C(=O)c3ccc(NCCC[C@H]4C[C@H](n5cc(-c6cnc7ccc(N8C[C@@H]9C[C@H]8CN9)cc7n6)cn5)C4)cc3C2=O)C(=O)N1` (stereo partly drawn) [GS-203, 5-((3-(trans-3-(4-(7-((1S,4S)-2,5-Diazabicyclo[2.2.1]heptan-2-yl)quinoxalin-2-yl)-1H-pyrazol-1-yl)cyclobutyl)propyl)amino)-2-(2,6-dioxopiperidin-3-yl)isoindoline-1,3-dione], the IC50 in the assay on MV4;11 cells (setting [1]) was 100 to 1000 nM; in the assay with MV4;11 cells (setting [2]), 10 to 100 nM; in the assay on MOLM-13 cells (setting [3]), above 1000 nM; with MOLM-13 cells (setting [4]), 10 to 100 nM.
With `O=C1CCC(N2C(=O)c3ccc(NCCC[C@H]4C[C@H](n5cc(-c6cnc7ccc(OC8CCNCC8)cc7n6)cn5)C4)cc3C2=O)C(=O)N1` (stereo partly drawn) [GS-204, 2-(2,6-Dioxopiperidin-3-yl)-5-((3-(trans-3-(4-(7-(piperidin-4-yloxy)quinoxalin-2-yl)-1H-pyrazol-1-yl)cyclobutyl)propyl)amino)isoindoline-1,3-dione], the IC50 with MV4;11 cells (setting [1]) was 10 to 100 nM; in the assay on MV4;11 cells (setting [2]), 10 to 100 nM; in the assay with MOLM-13 cells (setting [3]), 100 to 1000 nM; in the assay on MOLM-13 cells (setting [4]), below 10 nM.
With `O=C1CCC(N2C(=O)c3ccc(NCCC4CC(C(=O)N5CCC(n6cc(-c7cnc8ccccc8n7)cn6)CC5)C4)cc3C2=O)C(=O)N1` (stereo not drawn) [GS-205, 2-(2,6-Dioxopiperidin-3-yl)-5-((2-(3-(4-(4-(quinoxalin-2-yl)-1H-pyrazol-1-yl)piperidine-1-carbonyl)cyclobutyl)ethyl)amino)isoindoline-1,3-dione], the IC50 with MV4;11 cells (setting [1]) was 10 to 100 nM; in the assay on MV4;11 cells (setting [2]) it was below 10 nM; in the assay with MOLM-13 cells (setting [3]), 10 to 100 nM; with MOLM-13 cells (setting [4]), below 10 nM.
Consider `O=C1CCC(N2C(=O)c3ccc(NCCC[C@H]4C[C@H](n5cc(-c6cnc7ccc(Cl)cc7n6)cn5)C4)cc3C2=O)C(=O)N1` (stereo partly drawn) [GS-206, 5-((3-(trans-3-(4-(7-Chloroquinoxalin-2-yl)-1H-pyrazol-1-yl)cyclobutyl)propyl)amino)-2-(2,6-dioxopiperidin-3-yl)isoindoline-1,3-dione], for which the IC50 in the assay with MV4;11 cells (setting [1]) fell in the range of 10 to 100 nM; in the assay on MV4;11 cells (setting [2]), 10 to 100 nM; in the assay with MOLM-13 cells (setting [3]), 100 to 1000 nM; in the assay on MOLM-13 cells (setting [4]), 10 to 100 nM.
`O=C1CCC(N2C(=O)c3ccc(NCCC[C@H]4C[C@@H](n5cc(-c6cnc7ccc(N8CCOCC8)cc7n6)cn5)C4)cc3C2=O)C(=O)N1` (stereo partly drawn) [GS-207, 2-(2,6-Dioxopiperidin-3-yl)-5-((3-(cis-3-(4-(7-morpholinoquinoxalin-2-yl)-1H-pyrazol-1-yl)cyclobutyl)propyl)amino)isoindoline-1,3-dione]: the IC50 is 100 to 1000 nM in the assay with MV4;11 cells (setting [1]), 10 to 100 nM in the assay with MV4;11 cells (setting [2]), 100 to 1000 nM with MOLM-13 cells (setting [3]) and below 10 nM in the assay with MOLM-13 cells (setting [4]).
`O=C1CCC(N2C(=O)c3ccc(NCCC[C@H]4C[C@H](n5cc(-c6cnc7ccc(CN8CCOCC8)cc7n6)cn5)C4)cc3C2=O)C(=O)N1` (stereo partly drawn) [GS-208, 2-(2,6-Dioxopiperidin-3-yl)-5-((3-(trans-3-(4-(7-(morpholinomethyl)quinoxalin-2-yl)-1H-pyrazol-1-yl)cyclobutyl)propyl)amino)isoindoline-1,3-dione]: the IC50 in the assay with MV4;11 cells (setting [1]) fell in the range of 100 to 1000 nM; in the assay on MV4;11 cells (setting [2]), 10 to 100 nM; in the assay with MOLM-13 cells (setting [3]), 100 to 1000 nM; with MOLM-13 cells (setting [4]), 10 to 100 nM.
Turning to `O=C1CCC(N2C(=O)c3ccc(NCCC[C@H]4C[C@H](n5cc(-c6cnc7ccc(CN8CCNCC8)cc7n6)cn5)C4)cc3C2=O)C(=O)N1` (stereo partly drawn) [GS-209, 2-(2,6-Dioxopiperidin-3-yl)-5-((3-(trans-3-(4-(7-(piperazin-1-ylmethyl)quinoxalin-2-yl)-1H-pyrazol-1-yl)cyclobutyl)propyl)amino)isoindoline-1,3-dione], the IC50 in the assay on MV4;11 cells (setting [1]) is 100 to 1000 nM; in the assay with MV4;11 cells (setting [2]), 10 to 100 nM; with MOLM-13 cells (setting [3]), 100 to 1000 nM; in the assay with MOLM-13 cells (setting [4]) it was 10 to 100 nM.
For the molecule `O=C1CCC(N2C(=O)c3ccc(NCCC[C@H]4C[C@@H](n5cc(-c6cnc7ccc(C8CCOCC8)cc7n6)c(C(F)(F)F)n5)C4)cc3C2=O)C(=O)N1` (stereo partly drawn) [GS-210, 2-(2,6-Dioxopiperidin-3-yl)-5-((3-(cis-3-(4-(7-(tetrahydro-2H-pyran-4-yl)quinoxalin-2-yl)-3-(trifluoromethyl)-1H-pyrazol-1-yl)cyclobutyl)propyl)amino)isoindoline-1,3-dione], the IC50 in the assay on MV4;11 cells (setting [1]), in the assay with MV4;11 cells (setting [2]), with MOLM-13 cells (setting [3]) and with MOLM-13 cells (setting [4]) was below 10 nM each time.
In the case of `O=C1CCC(N2C(=O)c3ccc(NCCCCC(=O)N4CCC(n5cc(-c6cnc7ccc(N8CCNCC8)cc7n6)c(C6CC6)n5)CC4)cc3C2=O)C(=O)N1` (stereo not drawn) [GS-211, 5-((5-(4-(3-Cyclopropyl-4-(7-(piperazin-1-yl)quinoxalin-2-yl)-1H-pyrazol-1-yl)piperidin-1-yl)-5-oxopentyl)amino)-2-(2,6-dioxopiperidin-3-yl)isoindoline-1,3-dione], the IC50 in the assay on MV4;11 cells (setting [1]) is 10 to 100 nM; with MV4;11 cells (setting [2]) it was below 10 nM; in the assay with MOLM-13 cells (setting [3]), 10 to 100 nM; with MOLM-13 cells (setting [4]) it was below 10 nM.
For `O=C1CCC(N2C(=O)c3ccc(NCCC[C@H]4C[C@H](n5cc(-c6cnc7ccc(C(F)(F)F)cc7n6)cn5)C4)cc3C2=O)C(=O)N1` (stereo partly drawn) [GS-212, 2-(2,6-Dioxopiperidin-3-yl)-5-((3-(trans-3-(4-(7-(trifluoromethyl)quinoxalin-2-yl)-1H-pyrazol-1-yl)cyclobutyl)propyl)amino)isoindoline-1,3-dione], the IC50 in the assay with MV4;11 cells (setting [1]), in the assay on MV4;11 cells (setting [2]), with MOLM-13 cells (setting [3]) and with MOLM-13 cells (setting [4]) was 10 to 100 nM each time.
With `O=C1CCC(N2C(=O)c3ccc(NCCC[C@H]4C[C@@H](n5cc(-c6cnc7ccc(C8CCOCC8)cc7n6)c(C6CC6)n5)C4)cc3C2=O)C(=O)N1` (stereo partly drawn) [GS-213, 5-((3-(cis-3-(3-Cyclopropyl-4-(7-(tetrahydro-2H-pyran-4-yl)quinoxalin-2-yl)-1H-pyrazol-1-yl)cyclobutyl)propyl)amino)-2-(2,6-dioxopiperidin-3-yl)isoindoline-1,3-dione], the IC50 in the assay on MV4;11 cells (setting [1]), in the assay with MV4;11 cells (setting [2]), in the assay on MOLM-13 cells (setting [3]) and in the assay with MOLM-13 cells (setting [4]) was below 10 nM in each case.
As for `O=C1CCC(N2C(=O)c3ccc(NCCC[C@H]4C[C@@H](n5cc(-c6cnc7ccc(NC8CCNCC8)cc7n6)cn5)C4)cc3C2=O)C(=O)N1` (stereo partly drawn) [GS-214, 2-(2,6-Dioxopiperidin-3-yl)-5-((3-(cis-3-(4-(7-(piperidin-4-ylamino)quinoxalin-2-yl)-1H-pyrazol-1-yl)cyclobutyl)propyl)amino)isoindoline-1,3-dione], the IC50 was 100 to 1000 nM in the assay with MV4;11 cells (setting [1]), 10 to 100 nM in the assay with MV4;11 cells (setting [2]), above 1000 nM with MOLM-13 cells (setting [3]) and 10 to 100 nM in the assay on MOLM-13 cells (setting [4]).
`O=C1CCC(N2C(=O)c3ccc(NCCC[C@H]4C[C@H](n5cc(-c6cnc7ccc(N8CC9CCC(C8)N9)cc7n6)cn5)C4)cc3C2=O)C(=O)N1` (stereo partly drawn) [GS-215, 5-((3-(trans-3-(4-(7-(3,8-Diazabicyclo[3.2.1]octan-3-yl)quinoxalin-2-yl)-1H-pyrazol-1-yl)cyclobutyl)propyl)amino)-2-(2,6-dioxopiperidin-3-yl)isoindoline-1,3-dione]: the IC50 in the assay on MV4;11 cells (setting [1]) was 100 to 1000 nM; with MV4;11 cells (setting [2]) it was 10 to 100 nM; with MOLM-13 cells (setting [3]), 100 to 1000 nM; with MOLM-13 cells (setting [4]), below 10 nM.
Consider `O=C1CCC(N2C(=O)c3ccc(NC[C@H]4C[C@H](n5cc(-c6cccc(N7CCOCC7)n6)cn5)C4)cc3C2=O)C(=O)N1` (stereo partly drawn) [GS-216, 2-(2,6-Dioxopiperidin-3-yl)-5-(((trans-3-(4-(6-morpholinopyridin-2-yl)-1H-pyrazol-1-yl)cyclobutyl)methyl)amino)isoindoline-1,3-dione], for which the IC50 is 100 to 1000 nM with MV4;11 cells (setting [1]), above 1000 nM in the assay with MV4;11 cells (setting [2]), above 1000 nM in the assay on MOLM-13 cells (setting [3]) and above 1000 nM in the assay with MOLM-13 cells (setting [4]).
`O=C1CCC(N2C(=O)c3ccc(NCCC[C@H]4C[C@H](n5cc(-c6cccc(N7CCOCC7)n6)cn5)C4)cc3C2=O)C(=O)N1` (stereo partly drawn) [GS-217, 2-(2,6-Dioxopiperidin-3-yl)-5-((3-(trans-3-(4-(6-morpholinopyridin-2-yl)-1H-pyrazol-1-yl)cyclobutyl)propyl)amino)isoindoline-1,3-dione]: the IC50 in the assay on MV4;11 cells (setting [1]) is 10 to 100 nM; in the assay on MV4;11 cells (setting [2]) it was below 10 nM; in the assay on MOLM-13 cells (setting [3]), 100 to 1000 nM; in the assay on MOLM-13 cells (setting [4]), below 10 nM.
Take `O=C1CCC(N2C(=O)c3ccc(NC[C@H]4C[C@H](n5cc(-c6cccc(NC7CCOCC7)n6)cn5)C4)cc3C2=O)C(=O)N1` (stereo partly drawn) [GS-218, 2-(2,6-Dioxopiperidin-3-yl)-5-(((trans-3-(4-(6-((tetrahydro-2H-pyran-4-yl)amino)pyridin-2-yl)-1H-pyrazol-1-yl)cyclobutyl)methyl)amino)isoindoline-1,3-dione]: the IC50 with MV4;11 cells (setting [1]) is 100 to 1000 nM; in the assay on MV4;11 cells (setting [2]), 10 to 100 nM; in the assay with MOLM-13 cells (setting [3]), 100 to 1000 nM; in the assay with MOLM-13 cells (setting [4]) it was 10 to 100 nM.
Consider `O=C1CCC(N2C(=O)c3ccc(NCCC[C@H]4C[C@H](n5cc(-c6cnc7c(Cl)cccc7n6)cn5)C4)cc3C2=O)C(=O)N1` (stereo partly drawn) [GS-219, 5-((3-(trans-3-(4-(5-Chloroquinoxalin-2-yl)-1H-pyrazol-1-yl)cyclobutyl)propyl)amino)-2-(2,6-dioxopiperidin-3-yl)isoindoline-1,3-dione], for which the IC50 in the assay with MV4;11 cells (setting [1]) was 100 to 1000 nM; in the assay on MV4;11 cells (setting [2]), 10 to 100 nM; in the assay on MOLM-13 cells (setting [3]) it was above 1000 nM; in the assay with MOLM-13 cells (setting [4]), 10 to 100 nM.
Turning to `O=C1CCC(N2C(=O)c3ccc(NCCC[C@H]4C[C@H](n5cc(-c6cnc7ccc(N8CCNC9(CC9)C8)cc7n6)cn5)C4)cc3C2=O)C(=O)N1` (stereo partly drawn) [GS-220, 5-((3-(trans-3-(4-(7-(4,7-Diazaspiro[2.5]octan-7-yl)quinoxalin-2-yl)-1H-pyrazol-1-yl)cyclobutyl)propyl)amino)-2-(2,6-dioxopiperidin-3-yl)isoindoline-1,3-dione], the IC50 is above 1000 nM in the assay with MV4;11 cells (setting [1]), 100 to 1000 nM with MV4;11 cells (setting [2]), above 1000 nM in the assay on MOLM-13 cells (setting [3]) and 100 to 1000 nM with MOLM-13 cells (setting [4]).

The record behind these values is patent publication US20240050428A1 (Cullgen (Shanghai), Inc., priority 2020, published 2024).
